Source: PMC7179450, “Primary Human Hepatocytes, But not HepG2 or Balb/c 3T3 Cells, Efficiently Metabolize Salinomycin and Are Resistant to Its Cytotoxicity” (Molecules, 2020)
Like-named read-outs stand apart in the source and are kept apart here.

Key:
Format in all cases: cell-based
HepG2 cells [1] = experiment: LDH leakage assay in HepG2; conditions: Homo sapiens, mean ± SEM, n = 3, read-out: EC50 (effective concentration)
Protocol: (§1) The HepG2 cell line was purchased from the American Type Culture Collection (ATCC® HB-8065™). The cells were cultured in Minimum Essential Medium Eagle (MEME) (Sigma–Aldrich Co. (St. Louis, MO, USA)). Normal murine embryonic fibroblasts, Balb/c 3T3 clone A31 cell line (gift from Department of Swine Diseases of the National Veterinary Research Institute in Pulawy) was cultured in Dulbecco’s Modified Eagle’s Medium (DMEM) (Invitrogen Corporations (Paisley, UK)). The media were supplemented with 10% BCS (Balb/c 3T3), 10% FBS (HepG2), 1% L-glutamine, and 1% antibiotic solution. The cells were maintained in 75 cm^2 cell culture flasks in humidified incubator at 37 °C, in an atmosphere of 5% CO2. […] The initial cell viability was determined with the trypan blue exclusion test. […]
(§2) The concentration ranges of the drugs were chosen according to their solubility and their plasma level. […] The cytotoxicity was assessed after 24 and 48 h of exposure of cell lines or after 12 and 24 h exposure of PHH. […]
(§3) The integrity of the plasma membrane was assessed through the test of lactate dehydrogenase (LDH) release, which was monitored using a commercially available Cytotoxicity Detection Kit (LDH) (Roche Diagnostics, Basel, Switzerland). […] The absorbance was measured at 492 nm in a microplate reader using a blank as a reference.

HepG2 cells [2] = experiment: MTT assay, cytotoxicity in HepG2; conditions: Homo sapiens, mean ± SEM, n = 3, read-out: EC50 (effective concentration)
Protocol: as §1, §2
(§4) The metabolic activity of living cells was assessed by measuring the activity of dehydrogenases. […] The plate was shaken for 15 min at room temperature and transferred to a microplate reader to measure the absorbance at 570 nm, using a blank as a reference. Cytotoxicity was expressed as a percentage of the negative control (0.1% or 0.2% DMSO).

[3] = test system: primary human hepatocytes (PHH); experiment: LDH leakage assay in primary human hepatocytes; conditions: Hepatocyte, mean ± SEM, n = 3, read-out: EC50 (effective concentration)
Protocol: Cryopreserved PHH were purchased from the Primacyt GmbH (Schwerin, Germany). Two different lots were chosen based on CYP activity. The donor was a person. The post-thaw viability was 94.6% for lot HH160531 (used in two repetitions) and 85.0% for lot HH130805. The initial cell viability was determined with the trypan blue exclusion test. The cells were thawed and purified using the Plating and Thawing Kit (Primacyt GmbH). Purified hepatocytes were resuspended in Hepatocyte Plating Medium (Primacyt GmbH) and seeded on collagen-coated 96-well plates at a density of 9 × 10^5 cell/mL and incubated at 37 °C with 5% CO2. After 6 h of incubation, the medium was removed and the cells were washed with PBS. Then Human Hepatocyte Maintenance Medium (HHMM) (Primacyt GmbH) with the studied drugs was added to hepatocytes (100 µL/well). […]
as §2, §3

Balb/c 3T3 cells = experiment: MTT assay, cytotoxicity in Balb/c 3T3; conditions: Mus musculus, BALB/c3T3, Balb/c 3T3, MTT, mean ± SEM, n = 3, read-out: EC50 (effective concentration)
Protocol: as §1, §2, §4

## CC[C@@H](C(=O)[C@@H](C)[C@@H](O)[C@H](C)[C@@H]1O[C@@H]([C@@H](CC)C(=O)O)CC[C@@H]1C)[C@H]1O[C@]2(C=C[C@@H](O)[C@]3(CC[C@@](C)([C@H]4CC[C@](O)(CC)[C@H](C)O4)O3)O2)[C@H](C)C[C@@H]1C [SAL, salinomycin]
HepG2 cells [1]; 24 h exposure
  EC50: > 25 µg/mL
HepG2 cells [1]; 48 h exposure
  EC50: 13.8 ± 0.2 µg/mL
HepG2 cells [2]; 24 h exposure
  EC50: 15.4 ± 1.7 µg/mL
HepG2 cells [2]; 48 h exposure
  EC50: 12.9 ± 1.4 µg/mL
[3]; 12 h exposure
  EC50: 12.9 ± 3.2 µg/mL
[3]; 24 h exposure
  EC50: 11.3 ± 0.7 µg/mL
Balb/c 3T3 cells; 24 h exposure
  EC50: 10.4 ± 1.4 µg/mL
Balb/c 3T3 cells; 48 h exposure
  EC50: 4.3 ± 0.9 µg/mL
